Results reported in BindingDB's records for doi:10.1021/jm010087e (The University of Western Australia, 2001).

assay: Inhibitory activity against clostridium histolyticum collagenase

SMILES	Ki [nM]
CC(C(=O)NO)N(Cc1ccccc1[N+](=O)[O-])S(=O)(=O)c1ccc([N+](=O)[O-])c(Cl)c1 (centres undefined) [2-[(3-Chloro-4-nitro-benzenesulfonyl)-(2-nitro-benzyl)-amino]-N-hydroxy-propionamide]	9
CC(C(=O)O)N(Cc1ccccc1[N+](=O)[O-])S(=O)(=O)c1ccc([N+](=O)[O-])c(Cl)c1 (centres undefined) [2-[(3-Chloro-4-nitro-benzenesulfonyl)-(2-nitro-benzyl)-amino]-propionic acid]	3100
CC(C(=O)O)N(Cc1ccccc1[N+](=O)[O-])S(=O)(=O)c1cccc([N+](=O)[O-])c1 (centres undefined) [2-[(3-Nitro-benzenesulfonyl)-(2-nitro-benzyl)-amino]-propionic acid]	5200
COc1ccc(S(=O)(=O)N(Cc2ccccc2[N+](=O)[O-])C(C)C(=O)O)cc1NC(=O)OC(C)(C)C (centres undefined) [2-[(3-tert-Butoxycarbonylamino-4-methoxy-benzenesulfonyl)-(2-nitro-benzyl)-amino]-propionic acid]	2500
CC(C(=O)O)N(Cc1ccccc1[N+](=O)[O-])S(=O)(=O)c1cccc(NC(=O)OC(C)(C)C)c1 (centres undefined) [2-[(3-tert-Butoxycarbonylamino-benzenesulfonyl)-(2-nitro-benzyl)-amino]-propionic acid]	2500
CC(=O)c1ccc(S(=O)(=O)N(Cc2ccccc2[N+](=O)[O-])C(C)C(=O)NO)cc1 (centres undefined) [2-[(4-Acetyl-benzenesulfonyl)-(2-nitro-benzyl)-amino]-N-hydroxy-propionamide]	10
CC(=O)c1ccc(S(=O)(=O)N(Cc2ccccc2[N+](=O)[O-])C(C)C(=O)O)cc1 (centres undefined) [2-[(4-Acetyl-benzenesulfonyl)-(2-nitro-benzyl)-amino]-propionic acid]	2000
CC(=O)Nc1ccc(S(=O)(=O)N(Cc2ccccc2[N+](=O)[O-])C(C)C(=O)NO)cc1 (centres undefined) [2-[(4-Acetylamino-benzenesulfonyl)-(2-nitro-benzyl)-amino]-N-hydroxy-propionamide]	12
CC(=O)Nc1ccc(S(=O)(=O)N(Cc2ccccc2[N+](=O)[O-])C(C)C(=O)O)cc1 (centres undefined) [2-[(4-Acetylamino-benzenesulfonyl)-(2-nitro-benzyl)-amino]-propionic acid]	3300
CC(C(=O)NO)N(Cc1ccccc1[N+](=O)[O-])S(=O)(=O)c1ccc(Br)cc1 (centres undefined) [2-[(4-Bromo-benzenesulfonyl)-(2-nitro-benzyl)-amino]-N-hydroxy-propionamide]	33
CC(C(=O)O)N(Cc1ccccc1[N+](=O)[O-])S(=O)(=O)c1ccc(Br)cc1 (centres undefined) [2-[(4-Bromo-benzenesulfonyl)-(2-nitro-benzyl)-amino]-propionic acid]	10000
CC(C(=O)NO)N(Cc1ccccc1[N+](=O)[O-])S(=O)(=O)c1ccc(Cl)cc1 (centres undefined) [2-[(4-Chloro-benzenesulfonyl)-(2-nitro-benzyl)-amino]-N-hydroxy-propionamide]	32
CC(C(=O)O)N(Cc1ccccc1[N+](=O)[O-])S(=O)(=O)c1ccc(Cl)cc1 (centres undefined) [2-[(4-Chloro-benzenesulfonyl)-(2-nitro-benzyl)-amino]-propionic acid]	11000
CC(C(=O)NO)N(Cc1ccccc1[N+](=O)[O-])S(=O)(=O)c1ccc(F)cc1 (centres undefined) [2-[(4-Fluoro-benzenesulfonyl)-(2-nitro-benzyl)-amino]-N-hydroxy-propionamide]	30
CC(C(=O)O)N(Cc1ccccc1[N+](=O)[O-])S(=O)(=O)c1ccc(F)cc1 (centres undefined) [2-[(4-Fluoro-benzenesulfonyl)-(2-nitro-benzyl)-amino]-propionic acid]	12000
CC(C(=O)O)N(Cc1ccccc1[N+](=O)[O-])S(=O)(=O)c1ccc(I)cc1 (centres undefined) [2-[(4-Iodo-benzenesulfonyl)-(2-nitro-benzyl)-amino]-propionic acid]	11000
COc1ccc(S(=O)(=O)N(Cc2ccccc2[N+](=O)[O-])C(C)C(=O)O)cc1 (centres undefined) [2-[(4-Methoxy-benzenesulfonyl)-(2-nitro-benzyl)-amino]-propionic acid]	5700
CC(C(=O)O)N(Cc1ccccc1[N+](=O)[O-])S(=O)(=O)c1ccc([N+](=O)[O-])cc1 (centres undefined) [2-[(4-Nitro-benzenesulfonyl)-(2-nitro-benzyl)-amino]-propionic acid]	5000
CC(C(=O)O)N(Cc1ccccc1[N+](=O)[O-])S(=O)(=O)c1ccc(NC(=O)OC(C)(C)C)cc1 (centres undefined) [2-[(4-tert-Butoxycarbonylamino-benzenesulfonyl)-(2-nitro-benzyl)-amino]-propionic acid]	2600
CC(C(=O)NO)N(Cc1ccccc1[N+](=O)[O-])S(=O)(=O)c1cccc2c(N(C)C)cccc12 (centres undefined) [2-[(5-Dimethylamino-naphthalene-1-sulfonyl)-(2-nitro-benzyl)-amino]-N-hydroxy-propionamide]	9
CC(C(=O)O)N(Cc1ccccc1[N+](=O)[O-])S(=O)(=O)c1cccc2c(N(C)C)cccc12 (centres undefined) [2-[(5-Dimethylamino-naphthalene-1-sulfonyl)-(2-nitro-benzyl)-amino]-propionic acid]	2100
CC(C(=O)NO)N(Cc1ccccc1[N+](=O)[O-])S(=O)(=O)C(F)(F)C(F)(F)C(F)(F)C(F)(F)C(F)(F)C(F)(F)C(F)(F)C(F)(F)F (centres undefined) [2-[(Heptadecafluorooctane-1-sulfonyl)-(2-nitro-benzyl)-amino]-N-hydroxy-propionamide]	8

SMILES	Ki [nM]
CC(C(=O)O)N(Cc1ccccc1[N+](=O)[O-])S(=O)(=O)C(F)(F)C(F)(F)C(F)(F)C(F)(F)C(F)(F)C(F)(F)C(F)(F)C(F)(F)F (centres undefined) [2-[(Heptadecafluorooctane-1-sulfonyl)-(2-nitro-benzyl)-amino]-propionic acid]	1700
CC(C(=O)O)N(Cc1ccccc1[N+](=O)[O-])S(=O)(=O)c1cccc2ccccc12 (centres undefined) [2-[(Naphthalene-1-sulfonyl)-(2-nitro-benzyl)-amino]-propionic acid]	1600
CC(C(=O)O)N(Cc1ccccc1[N+](=O)[O-])S(=O)(=O)c1ccc2ccccc2c1 (centres undefined) [2-[(Naphthalene-2-sulfonyl)-(2-nitro-benzyl)-amino]-propionic acid]	1800
Cc1ccccc1S(=O)(=O)NC(=O)N(Cc1ccccc1[N+](=O)[O-])C(C)C(=O)O (centres undefined) [2-[({[(2-methylphenyl)sulfonyl]amino}carbonyl)(2-nitrobenzyl)amino]propanoic acid]	3000
CC(C(=O)NO)N(Cc1ccccc1[N+](=O)[O-])C(=O)NS(=O)(=O)c1ccc(Cl)cc1 (centres undefined) [2-[({[(4-chlorophenyl)sulfonyl]amino}carbonyl)(2-nitrobenzyl)amino]-N-hydroxypropanamide]	7
CC(C(=O)O)N(Cc1ccccc1[N+](=O)[O-])C(=O)NS(=O)(=O)c1ccc(Cl)cc1 (centres undefined) [2-[({[(4-chlorophenyl)sulfonyl]amino}carbonyl)(2-nitrobenzyl)amino]propanoic acid]	2700
CC(C(=O)NO)N(Cc1ccccc1[N+](=O)[O-])C(=O)NS(=O)(=O)c1ccc(F)cc1 (centres undefined) [2-[({[(4-fluorophenyl)sulfonyl]amino}carbonyl)(2-nitrobenzyl)amino]-N-hydroxypropanamide]	8
CC(C(=O)O)N(Cc1ccccc1[N+](=O)[O-])C(=O)NS(=O)(=O)c1ccc(F)cc1 (centres undefined) [2-[({[(4-fluorophenyl)sulfonyl]amino}carbonyl)(2-nitrobenzyl)amino]propanoic acid]	3000
Cc1ccc(S(=O)(=O)NC(=O)N(Cc2ccccc2[N+](=O)[O-])C(C)C(=O)O)cc1 (centres undefined) [2-[({[(4-methylphenyl)sulfonyl]amino}carbonyl)(2-nitrobenzyl)amino]propanoic acid]	3100
CC(C(=O)NO)N(Cc1ccccc1[N+](=O)[O-])S(=O)(=O)c1ccccc1 (centres undefined) [2-[Benzenesulfonyl-(2-nitro-benzyl)-amino]-N-hydroxy-propionamide]	59
CC(C(=O)O)N(Cc1ccccc1[N+](=O)[O-])S(=O)(=O)c1ccccc1 (centres undefined) [2-[Benzenesulfonyl-(2-nitro-benzyl)-amino]-propionic acid]	27000
CC(C(=O)O)N(Cc1ccccc1[N+](=O)[O-])S(C)(=O)=O (centres undefined) [2-[Methanesulfonyl-(2-nitro-benzyl)-amino]-propionic acid]	22000
CC(C(=O)NO)N(Cc1ccccc1[N+](=O)[O-])S(=O)(=O)N(C)C (centres undefined) [2-[[(dimethylamino)sulfonyl](2-nitrobenzyl)amino]-N-hydroxypropanamide]	79
CC(C(=O)O)N(Cc1ccccc1[N+](=O)[O-])S(=O)(=O)N(C)C (centres undefined) [2-[[(dimethylamino)sulfonyl](2-nitrobenzyl)amino]propanoic acid]	43000
CC(C(=O)O)N(Cc1ccccc1[N+](=O)[O-])S(=O)(=O)c1cccc(C(=O)O)c1 (centres undefined) [3-[(1-Carboxy-ethyl)-(2-nitro-benzyl)-sulfamoyl]-benzoic acid]	2100
CC(C(=O)NO)N(Cc1ccccc1[N+](=O)[O-])S(=O)(=O)c1cccc(C(=O)O)c1 (centres undefined) [3-[(1-Hydroxycarbamoyl-ethyl)-(2-nitro-benzyl)-sulfamoyl]-benzoic acid]	8
CC(C(=O)O)N(Cc1ccccc1[N+](=O)[O-])S(=O)(=O)c1ccc(C(=O)O)cc1 (centres undefined) [4-[(1-Carboxy-ethyl)-(2-nitro-benzyl)-sulfamoyl]-benzoic acid]	1900
CC(C(=O)NO)N(Cc1ccccc1[N+](=O)[O-])S(=O)(=O)c1ccc(C(=O)O)cc1 (centres undefined) [4-[(1-Hydroxycarbamoyl-ethyl)-(2-nitro-benzyl)-sulfamoyl]-benzoic acid]	7
CC(C(=O)NO)N(Cc1ccccc1[N+](=O)[O-])C(=O)Nc1cccc2ccccc12 (centres undefined) [N-Hydroxy-2-[3-naphthalen-1-yl-1-(2-nitro-benzyl)-ureido]-propionamide]	10
CC(C(=O)NO)N(Cc1ccccc1[N+](=O)[O-])S(=O)(=O)c1ccccc1[N+](=O)[O-] (centres undefined) [N-Hydroxy-2-[(2-nitro-benzenesulfonyl)-(2-nitro-benzyl)-amino]-propionamide]	11
Cc1cc(C)c(S(=O)(=O)N(Cc2ccccc2[N+](=O)[O-])C(C)C(=O)NO)c(C)c1 (centres undefined) [N-Hydroxy-2-[(2-nitro-benzyl)-(2,4,6-trimethyl-benzenesulfonyl)-amino]-propionamide]	21
CC(C(=O)NO)N(Cc1ccccc1[N+](=O)[O-])Sc1ccccc1[N+](=O)[O-] (centres undefined) [N-Hydroxy-2-[(2-nitro-benzyl)-(2-nitro-phenylsulfanyl)-amino]-propionamide]	12
